Source: article PMC3785825 (Journal of the Royal Society Interface, 2013)
No end group written: not given here.

How the values were obtained:
CGRP receptors = conditions: double alanine mutant R^11AR^18A; cited from earlier work
Text: The loop conformations spanned a large proportion of the space available to ECL2 (figure 4a). […] ECL2 forms an extended loop; this conformation is often seen as two antiparallel beta-strands in all peptide GPCRs for which structures are available, creating a large interface for peptide–receptor contacts. Here, we re-interpret seve ...

[1] = system: CLR W283A/RAMP1 (CGRP receptor); assay: AM-stimulated cAMP (alphascreen), W283A mutant; assay type: cell-based, human
Text: (§1) Curve fitting was done with […]
(§2) To explore the effects of the above mutants further, their ability to respond to AM through cAMP production was subsequently investigated. […] There was especially good agreement between the two agonists for the central area of functional importance ranging from D280 to T288. […] The effect of mutations at the N- and C-termini of ECL2 was more variable between the two peptides.

[2] = system: CLR L291A/RAMP1 (CGRP receptor); assay: AM-stimulated cAMP (alphascreen), L291A mutant; assay type: cell-based, human; conditions: Cos 7 cells
Text: as §1, §2

[3] = system: CLR T288A/RAMP1 (CGRP receptor); assay: AM-stimulated cAMP (alphascreen), T288A mutant; assay type: cell-based, human; conditions: residue T288; effect of alanine mutation on AM
Text: as §1, §2

[4] = system: CLR ECL2 mutants with human RAMP1; assay: AM-stimulated cAMP (alphascreen), ECL2 alanine scan; assay type: cell-based; conditions: some mutants (not given); Cos 7 cells
Text: as §1, §2

[5] = system: CLR R274A/RAMP1 (CGRP receptor); assay: AM-stimulated cAMP (alphascreen), R274A mutant; assay type: cell-based, human
Text: as §1, §2

CGRP receptor = conditions: AM at the CGRP receptor versus CGRP; cited from earlier work
[6] = system: CLR D280A/RAMP1 (CGRP receptor); assay: AM-stimulated cAMP (alphascreen), D280A mutant; assay type: cell-based, human
Text: as §1, §2

[7] = system: CLR L290A/RAMP1 (CGRP receptor); assay: AM-stimulated cAMP (alphascreen), L290A mutant; assay type: cell-based, human; conditions: Cos 7 cells
Text: as §1, §2

[8] = system: CLR I284A/RAMP1 (CGRP receptor); assay: AM-stimulated cAMP (alphascreen), I284A mutant; assay type: cell-based, human; conditions: residue I284; effect of alanine mutation on AM
Text: as §1, §2

[9] = system: CLR S285A/RAMP1 (CGRP receptor); assay: AM-stimulated cAMP (alphascreen), S285A mutant; assay type: cell-based, human; conditions: residue S285; effect of alanine mutation on AM
Text: as §1, §2

[10] = system: CLR Y278A/RAMP1 (CGRP receptor); assay: AM-stimulated cAMP (alphascreen), Y278A mutant; assay type: cell-based, human; conditions: Cos 7 cells
Text: as §1, §2

[11] = system: CLR A273L/RAMP1 (CGRP receptor); assay: AM-stimulated cAMP (alphascreen), A273L mutant; assay type: cell-based, human; conditions: residue A273 (mutated to leucine); effect of mutation on AM
Text: as §1, §2

[12] = system: CLR Y277A/RAMP1 (CGRP receptor); assay: AM-stimulated cAMP (alphascreen), Y277A mutant; assay type: cell-based, human; conditions: Cos 7 cells
Text: as §1, §2

Substance	reduction in affinity (CGRP receptors)	cAMP response / Emax ([1]; W283A, Cos 7 cells)	AM effect ([1]; residue W283, effect of alanine mutation on AM)	potency versus WT [2]	AM effect [3]	activation of the receptor [4]	cAMP response / Emax ([5]; R274A, Cos 7 cells)	AM effect ([5]; residue R274, effect of alanine mutation on AM)	affinity, folds less than that for CGRP (CGRP receptor)	cAMP response / Emax ([6]; D280A, Cos 7 cells)	AM effect ([6]; residue D280, effect of alanine mutation on AM)	potency versus WT [7]	AM effect [8]	AM effect [9]	effect on pEC50 [10]	reduction in maximal cAMP response [10]	AM effect [11]	effect on pEC50 [12]	reduction in maximal cAMP response [12]
R^11AR^18A: double alanine mutant of CGRP, literature (ACDTATCVTHALAGLLSASGGVVKNNFVPTNVGSKAF; not fully specified; ends and bridges not checked; UniProt P06881 83-119, looked up, variant R11A R18A)	100 fold																		
adrenomedullin [AM]		so low that an Emax could not be reliably determined	√	not significantly affected	√	impossible to measure any activation of the receptor	so low that an Emax could not be reliably determined	√	approximately 10 folds	so low that an Emax could not be reliably determined	√	not significantly affected	√	√	did not show AM-mediated effects on pEC50	approximately 25%	√	did not show AM-mediated effects on pEC50	approximately 25%
